Source: patent US10308660B2, “Compounds and compositions for inhibiting the activity of SHP2” (Novartis AG, priority 2015, dated 2019)

Target: SHP2 (Homo sapiens (Human), UniProt Q06124)
Experiment: SHP2 allosteric inhibition assay (DiFMUP prompt fluorescence)
Type: biochemical
Conditions: 0.5 nM SHP2 activated with 0.5 μM peptide IRS1_pY1172(dPEG8)pY1222; substrate DiFMUP; 25° C.

Sequence of SHP2 (Q06124 whole entry): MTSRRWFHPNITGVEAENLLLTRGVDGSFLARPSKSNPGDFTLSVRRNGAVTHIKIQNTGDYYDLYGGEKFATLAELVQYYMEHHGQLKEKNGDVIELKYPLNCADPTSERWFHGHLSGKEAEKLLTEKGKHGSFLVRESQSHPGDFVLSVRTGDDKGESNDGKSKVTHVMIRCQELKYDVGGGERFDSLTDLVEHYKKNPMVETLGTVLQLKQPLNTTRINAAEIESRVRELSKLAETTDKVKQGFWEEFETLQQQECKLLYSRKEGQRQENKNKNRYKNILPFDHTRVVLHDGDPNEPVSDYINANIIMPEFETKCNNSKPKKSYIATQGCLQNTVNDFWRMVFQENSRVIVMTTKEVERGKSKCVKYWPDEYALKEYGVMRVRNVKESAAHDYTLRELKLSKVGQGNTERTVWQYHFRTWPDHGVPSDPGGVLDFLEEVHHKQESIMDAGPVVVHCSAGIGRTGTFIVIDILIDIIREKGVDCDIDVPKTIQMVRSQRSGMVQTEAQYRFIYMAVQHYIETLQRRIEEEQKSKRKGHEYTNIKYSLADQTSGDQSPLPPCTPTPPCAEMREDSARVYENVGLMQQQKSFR

Structure (SMILES) | IC50
C[C@@H]1CC2(CCN(c3nc(N)c(Sc4ccnc(N)c4Cl)c(=O)n3C)CC2)[C@@H](N)[C@H]1F (single isomer, unassigned) [Example 37] | 47 nM
C[C@@H]1CC2(CCN(c3nc(N)c(Sc4ccnc(N)c4Cl)c(=O)n3C)CC2)[C@H](N)[C@@H]1F (single isomer, unassigned) [Example 38] | 30 nM
C[C@H]1CC2(CCN(c3nc(N)c(Sc4cccnc4C(F)(F)F)c(=O)n3C)CC2)[C@@H](N)[C@@H]1C(F)(F)F (single isomer, unassigned) [Example 64] | 856 nM
C[C@H]1CC2(CCN(c3nc(N)c(Sc4cccnc4C(F)(F)F)c(=O)n3C)CC2)[C@H](N)[C@@H]1C(F)(F)F (single isomer, unassigned) [Example 65] | 61 nM
C[C@@H]1OCC2(CCN(c3nc(N)c(Sc4ccnc(N)c4Cl)c(=O)n3C)CC2)[C@@H]1N [Example 3] | 44 nM
Cn1c(N2CCC(C)(CN)CC2)nc(N)c(Sc2ccnc(N)c2Cl)c1=O [Example 4] | 53 nM
Cn1c(N2CCC(C)(CN)CC2)nc(N)c(Sc2cccc(Cl)c2)c1=O [Example 5] | 2210 nM
Cn1c(N2CCC(C)(CN)CC2)nc(N)c(Sc2ccccc2Cl)c1=O [Example 6] | 286 nM
Cn1c(N2CCC(C)(CN)CC2)nc(N)c(Sc2cccnc2C(F)(F)F)c1=O [Example 7] | 109 nM
Cn1c(N2CCC(C)(CN)CC2)nc(N)c(Sc2cccc(N)c2Cl)c1=O [Example 8] | 232 nM
COc1cccc(Sc2c(N)nc(N3CCC(C)(CN)CC3)n(C)c2=O)c1Cl [Example 9] | 47 nM
Cn1c(N2CCC(C)(CN)CC2)nc(N)c(Sc2cccc(C#N)c2)c1=O [Example 10] | 5630 nM
Cn1c(N2CCC(C)(CN)CC2)nc(N)c(Sc2cccc(OC(F)(F)F)c2)c1=O [Example 11] | 441 nM
Cn1c(N2CCC3(CCC[C@H]3N)CC2)nc(N)c(Sc2cccc(Cl)c2Cl)c1=O [Example 13] | 39 nM
Cn1c(N2CCC3(CCC[C@H]3N)CC2)nc(N)c(Sc2cccnc2C(F)(F)F)c1=O [Example 14] | 98 nM
Cn1c(N2CCC3(CC2)COC[C@H]3N)nc(N)c(Sc2ccnc(N)c2Cl)c1=O [Example 16] | 22 nM
C[C@@H]1OCC2(CCN(c3nc(N)c(Sc4cc(N)nc(Cl)c4Cl)c(=O)n3C)CC2)[C@@H]1N [Example 19] | 14 nM
COc1cccc(Sc2c(N)nc(N3CCC4(CC3)CO[C@@H](C)[C@H]4N)n(C)c2=O)c1Cl [Example 20] | 17 nM
C[C@H]1C[C@@H](N)C2(CCN(c3nc(N)c(Sc4ccnc(N)c4Cl)c(=O)n3C)CC2)C1 [Example 21] | 28 nM
C[C@@H]1OCC2(CCN(c3nc(N)c(Sc4cccnc4OC(F)(F)F)c(=O)n3C)CC2)[C@@H]1N [Example 22] | 108 nM
COc1nccc(Sc2c(N)nc(N3CCC4(CC3)CO[C@@H](C)[C@H]4N)n(C)c2=O)c1Cl [Example 23] | 23 nM
Cn1c(N2CCC(C)(CN)CC2)nc(N)c(Sc2cccc3ncccc23)c1=O [Example 24] | 299 nM
C[C@@H]1OCC2(CCN(c3nc(N)c(Sc4cccc(N)c4Cl)c(=O)n3C)CC2)[C@@H]1N [Example 25] | 38 nM
C[C@@H]1OCC2(CCN(c3nc(N)c(Sc4ccccc4)c(=O)n3C)CC2)[C@@H]1N [Example 26] | 82 nM
C[C@@H]1OCC2(CCN(c3nc(N)c(Sc4ccccc4Cl)c(=O)n3C)CC2)[C@@H]1N [Example 27] | 25 nM
C[C@@H]1OCC2(CCN(c3nc(N)c(Sc4ccnc(N5CCCC5)c4Cl)c(=O)n3C)CC2)[C@@H]1N [Example 28] | 28 nM
CCOc1nccc(Sc2c(N)nc(N3CCC4(CC3)CO[C@@H](C)[C@H]4N)n(C)c2=O)c1Cl [Example 30] | 32 nM
C[C@@H]1OCC2(CCN(c3nc(N)c(Sc4cccc(N)c4C(F)(F)F)c(=O)n3C)CC2)[C@@H]1N [Example 31] | 20 nM
C[C@@H]1CC2(CCN(c3nc(N)c(Sc4cccnc4C(F)(F)F)c(=O)n3C)CC2)[C@H](N)C1(F)F [Example 33] | 40 nM
